A melting point compilation (Tetko et al.; mined from patent text by program, amines drawn as free bases though some values may be those of a salt)

| SMILES | melting point |
| --- | --- |
| CNC(=O)c1cnc(OCC(O)CNC(C)C)c(Cl)c1 (stereo not drawn) | 130 to 132 °C |
| CC1(C)CCOC1=C(n1ccnc1)S(=O)(=O)c1ccc(Cl)cc1 | 192 to 194 °C |
| O=C(O)C1CC(F)(F)CC1C(=O)O (stereo not drawn) | 128 °C |
| CCOC(=O)N1CCC2(CC1)C(=O)NCN2c1ccc(F)cc1 | 153 °C |
| CC(=O)OCC(=O)C1(O)CCC2C3CCC4=CC(=O)C=CC4(C)C3CCC21C (stereo not drawn) | 214 °C |
| CC(C)CCCC(C)C1CCC2C3CC=C4CC(OC(=O)NCC(=O)N(CCCl)CCCl)CCC4(C)C3CCC12C (stereo not drawn) | 98 to 100 °C |
| CCCCNC(=O)NS(=O)(=O)c1cc(I)ccc1C(=O)OC | 128 to 130 °C |
| Cn1nc2cccc(OCC3CC3)c2c1S(N)(=O)=O | 139 to 141 °C |
| CC12C=CC(=O)C=C1CCC1C2CCC2(C)C1CCC21CC(=O)CO1 (stereo not drawn) | 147 to 153 °C |
| COCCN1CCSc2ccc(Nc3ncc(Cl)c(N[C@@H]4CCCC[C@H]4NS(C)(=O)=O)n3)cc2C1 | 140 to 143 °C |
| Cc1c(Nc2c(C#N)cncc2-c2cc3cc(CN4CCN(C)CC4)ccc3o2)ccc2[nH]ccc12 | 162 to 165 °C |
| O=C1CN(CCN2CC(=O)N(CN3CCCC3)C(=O)C2)CC(=O)N1CN1CCCC1 | 150 to 155 °C |
| CCS(=O)c1nsc(NC(=O)N(C)C)c1C#N (stereo not drawn) | 162 to 163 °C |
| Nc1ccc(C(=O)OCCCCl)c(N)c1 | 97 °C |
| CCCCCCCCCCCCCCN=C=O | 100 to 104 °C |
| N#CC(Cc1c[nH]cn1)(c1ccc(Cl)cc1)c1ccc(Cl)cc1 | 152 to 153 °C |
| CCS(=O)(=O)Nc1cc(Cc2c[nH]cn2)ccc1Cl | 159 to 160 °C |
| COC(=O)C(C)(C)CCCOc1cc(C)c([N+](=O)[O-])cc1C | 73 to 75 °C |
| CC(NCC(O)CP(=O)(O)CC1CCCCC1)c1ccc(Cl)c(Cl)c1 (stereo not drawn) | 173 to 178 °C |
| CCCC12CCC3C4CCC(=O)C=C4CCC3C1CCC2(O)CC (stereo not drawn) | 93 to 95 °C |
| O=C1O[C@@H](CN2CCC(Cc3ccc(F)cc3)CC2)CN1c1ccc(O)cc1 | 164 to 165 °C |
| Clc1nc(N2CC3CCC(CC3)C2)nc(N2CC3CCC(CC3)C2)n1 | 195 to 200 °C |
| CC1Nc2cnccc2N(C)n2cccc21 (stereo not drawn) | 157 to 160 °C |
| O=C(CCl)COc1cccc(C(F)(F)F)c1 | 38 to 39 °C |

| SMILES | melting point |
| --- | --- |
| CN(C)C=NS(=O)(=O)c1cc(C(=O)c2cc3c(c(Cl)c2Cl)OC(CO)C3)ccc1Cl (stereo not drawn) | 180 to 182 °C |
| O=S(=O)(F)c1ccc(OCc2ccccc2)nn1 | 85 to 86 °C |
| CCOC(=O)C1=C(COCCN)NC(C)=C(C(=O)OC)C1c1cccc(C(F)(F)F)c1Cl (stereo not drawn) | 122 °C |
| Nc1cc(N2CCCC2=O)c(Cl)cc1Cl | 168 to 170 °C |
| Cc1ccc(-c2nc(CCC(O[Si](C)(C)C(C)(C)C)c3ccc(C=O)s3)c(C)o2)cc1 (stereo not drawn) | 122 to 124 °C |
| CCOC(=O)c1csc2nc(C(=O)OC)cn12 | 187 to 189 °C |
| O=c1[nH]c2ccccc2c2c1CNCC2 | 292 to 295 °C |
| CCCC1N=Cc2cc(Cl)nc(=O)n21 (stereo not drawn) | 194 to 196 °C |
| CCCCOc1ccc(CCCOC(=O)NS(=O)(=O)NCCOC(C)C)c(Oc2ncc(C(F)(F)F)cc2Cl)c1 | 91.4 to 91.6 °C |
| Cc1cc(C)n(CC(C)C)c(=O)c1C(=O)O | 93 to 95 °C |
| CCN(CC)S(=O)(=O)c1nc2ccc([N+](=O)[O-])cc2n1CC | 90 to 91 °C |
| CN(C)Cc1cc(C(C)(C)C)cc(C(C)(C)C)c1O | 54 to 56 °C |
| CC1=CC(O)C(OC(=O)c2nc[nH]c2C)C(C)(C)CC1=O (stereo not drawn) | 201 to 202 °C |
| CC(C)SC1CCC(=O)N1 (stereo not drawn) | 77 to 79 °C |
| COc1ccccc1CN[C@H]1CCCN[C@H]1C(C)(C)C (relative stereo) | > 251 °C |
| Cc1cccc(C)c1N(C(C)C(=O)NN)S(C)(=O)=O (stereo not drawn) | 115 to 118 °C |
| CC(=O)N1CCN(c2ccc(-c3cnc4[nH]cc(C(=O)C5(C)CCCCC5)c4n3)cc2)CC1 | 278 to 285 °C |
| CN1CCC(=C2c3cc(Br)ccc3CC(=O)c3sccc32)CC1 | 172 to 173 °C |
| CC(C)(C)OC(=O)NCCNC(=O)c1ccc(CO)cc1 | 117 to 119 °C |
| COc1ccc(N2CCN(c3c(C)c(C)c4c(c3C)CC(C)(CO)O4)CC2)cc1 (stereo not drawn) | 137 to 139 °C |
| CN(SN1CCOCC1)C(=O)ON=C1SCC(=O)NC1(C)C | 180 to 182 °C |
| CN1C(=O)CC(=O)N(c2ccccc2)c2ccccc21 | 144 to 146 °C |
| COc1ccc(O)cc1[N+](=O)[O-] | 78 to 80 °C |
| CCOP(=O)(OCC)c1ccc(/C=C/c2ccc3c(c2)C(C)(C)CCC3(C)C)cc1 | 83 to 84 °C |

More lines, now with the values ahead:

| melting point | SMILES |
| --- | --- |
| 187 to 189 °C | Cc1ccc(-c2ccc3c(c2)C=C(C(=O)Nc2ccc(C#N)cc2)CCO3)cc1 |
| > 300 °C | CCCCc1nc2ccn(Cc3ccc(C(=O)O)cc3)c(=O)c2n1Cc1ccc(-c2ccccc2-c2nnn[nH]2)cc1 |
| 146 to 147 °C | CC(C)(C)c1ccc(CCC(O)CCC2CCCCCC2)cc1NC(=O)CC1c2ccccc2Oc2ccccc21 (stereo not drawn) |
| 101 to 105 °C | COc1cc(/C=C/C=C/C(=O)NCCN2CCC(c3c[nH]c4ccccc34)CC2)ccc1OC(C)=O |
| 192 to 195 °C | COc1ccccc1Oc1c(O)nc(-c2cccc(OCc3ccccc3)c2)nc1O |
| 136 to 137 °C | CC(C)NC(=O)c1ccc2[nH]cc(CCNC(=O)OCc3ccccc3)c2c1 |
| 247 to 248 °C | O=C(O)c1csnc1-c1ccc(Cl)c(Cl)c1 |
| 127 to 128 °C | CCOP(=O)(/C=C/c1cn(-c2ccccc2)nc1OCc1ccc(OCc2nc(-c3cccc(O)c3)oc2C)c(OC)c1)OCC |
| 105 °C | COC(=O)c1cc(-c2ccc(Cl)cc2)n(Cc2ccc(Cl)cc2Cl)n1 |
| 229 to 231 °C | COc1ccc(-n2c(=O)c(CCCO)c(O)c3cccnc32)cc1 |
| 236 °C | COc1ccccc1C1(O)C(O)CC(c2ccccc2)(c2ccccc2)C2CN(Cc3ccccc3)CC21 (stereo not drawn) |
| 174 to 176 °C | CCCc1ccc(C(=O)Nc2ccc(C(C)=O)cc2)cc1 |
| 159 to 162 °C | CCCC1=C(C(=O)OCC)C(c2cccc(F)c2C)c2c[nH]nc2N1 (stereo not drawn) |
| 112 to 113 °C | Cc1nnc(-c2ccc3occ(-c4cccc(F)c4F)c3c2)o1 |
| 103 to 104 °C | Cc1sc(-c2ccccc2)nc1COc1cc(COc2ncccc2CC#N)on1 |
| 233 to 234 °C | COc1ccc(OCc2nc3nccnc3c(=O)[nH]2)cc1 |
| 272 to 274 °C | COc1ccc(Nc2cc(-c3ccccc3)nc3ccccc23)cc1Cl |
| 123 to 124 °C | CC(C)OC(=O)c1cnn(-c2ccccn2)c1S(N)(=O)=O |
| 128 to 130 °C | Cc1ccc(C(=O)NCCCCOc2ccc(-n3ccnc3)cc2)cc1 |
| 224 to 227 °C | Nc1cc(Oc2ccc(CCO)cc2)c(N)c2c1C(=O)c1ccccc1C2=O |
| 210 to 212 °C | CCOC(=O)c1cc(=O)c2ccccc2[nH]1 |
| 57 to 60 °C | O=C(NCCBr)Oc1ccccc1 |
| 190 to 191 °C | CNC(=O)C[C@@H](NC(=O)OCc1ccccc1)C(C)C |
| 184 to 185 °C | CC(C)n1nc(-c2c(-c3ccccc3)nn3ccc(C(=O)N4CCC(c5ccccc5)CC4)cc23)ccc1=O |
| 133 to 135 °C | COC(=O)c1c(Cl)cc(Cl)cc1NC(=O)CSc1ccc(NC(=O)c2ccco2)cc1 |
| 125 to 127 °C | BrCc1ccc(C=Cc2ccccc2)cc1 |
| 165 to 168 °C | O=c1[nH]ccc2c(OCc3ccccc3)cccc12 |
| 141 to 143 °C | NC(=O)Nc1cccc(OCCCCl)c1 |

| melting point | SMILES |
| --- | --- |
| 151 °C | O=c1c2ccccc2sc2cc(OCC(O)CCl)cc(O)c12 (stereo not drawn) |
| 123 °C | CN1CC[C@@H](c2cc(Cl)ccc2O)[C@@H]1c1ccccc1I (relative stereo) |
| 80 to 82 °C | CSc1ccc(-c2cccc(-c3nc(C(C)C)[nH]c3-c3cccc(C)n3)c2)cc1 |
| 102 to 104 °C | COc1ccc(-c2nc(SC)sc2-c2ccc(OC)cc2)cc1 |
| 88 to 96 °C | O=C1CCC(c2ccc(NN=C(CO)c3ccccc3)cc2)=NN1 |
| 194 to 196 °C | O=C1N(C(c2ccccc2)c2ccccc2)c2cc(F)ccc2C12COc1cc3c(cc12)CCO3 (stereo not drawn) |
| 355 to 358 °C | NC(=O)c1cc2c3ccccc3[nH]c(=O)n2n1 |
| 87 to 89 °C | OCCCc1cc(Cl)cc2nc(Cc3ccccc3Cl)oc12 |
| > 152 °C | CCCCc1nn(-c2cc(NC(=O)CC)ccc2Cl)c(=O)n1Cc1ccc(-c2ccccc2S(=O)(=O)NC(=O)c2ccccc2Cl)cc1F |
| 226 to 228 °C | Cc1cc(Cl)nn2c(-c3ccnc4[nH]ccc34)c(-c3ccc(F)cc3)nc12 |
| 137 to 141 °C | Cc1ccc(Nc2c(C)cc(Cl)cc2Cl)c(CC(=O)O)c1 |
| 236 °C | COC(=O)c1[nH]c2ncccc2c1-c1ccc(N)cc1 |
| 76 to 77 °C | Cc1cc(C(=O)Oc2ccccc2)c(O)c2ccccc12 |
| 143 to 144 °C | Cc1ccc(C(=Cc2nnnn2C)c2ccc(C)cc2C)c(C)c1 |
| 162 to 164 °C | Cc1ccc(-c2cc(N3CCCC3)c(C#N)c3c2-c2ccccc2C3=O)cc1 |
| 42 to 43 °C | CCN(C(=O)n1nnc2cc(C)ccc21)c1ccccc1 |
| 22 to 24 °C | O=C(C[N+](=O)[O-])OCCSc1ccccc1 |
| 147 to 152 °C | CN(c1ccccc1)c1nc(N)nc2nc[nH]c12 |
| 163 to 165 °C | O=C1c2cccnc2C(=O)N1Cc1ccccc1 |
| 212 °C | COc1ccccc1N(CC(=O)N(C)c1ccccc1)C(=O)CNC(=O)Nc1cccc(C)c1 |
| 161 to 162 °C | COc1nsc(NC(=O)[C@H](C)NC(=O)[C@H](Cc2ccccc2)NC(=O)OCc2ccccc2)n1 |
| 254 to 258 °C | CC(=O)Nc1ccc(C2=NNC(=O)C2)cc1 |
| 184 °C | COn1c(=S)n(C)c(=O)c2ccccc21 |
| 177 to 179 °C | CN1CCN(c2ccccc2C=C2CCN(c3ccc(Cl)c(Cl)c3)C2=O)CC1 |
| 170 to 172 °C | O=c1cc(N2CCOCC2)oc2cc(OCc3ccccc3)ccc12 |
| 166 to 170 °C | CC1(C)CC(=NO)c2cc(-c3ccc(Br)cc3)ccc2O1 |
| 153 to 154 °C | O=Cc1cn(-c2ccccc2)nc1OCc1ccccc1 |
